This note sets out measurements from the supplement of paper PMC10307832.

Common to all, as to assay: relative viability (nuclei count vs DMSO), 5 days (fraction); higher = more cells survive
Compound in assay [1]: O=C(Nc1cccc(C(F)(F)F)c1)Nc1cc(S(=O)(=O)NC2CC2)ccc1-c1ccsc1 [AGI-6780] + CCNC(=O)c1noc(-c2cc(C(C)C)c(O)cc2O)c1-c1ccc(CN2CCOCC2)cc1 [Luminespib] (partner 0.01 µM)
An outline of the steps: (§1)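 Lung cancer cell lines, seeded in 1536-well plates, were treated the following day by pin tool with a single drug or with five library-drug doses (not always all listed) in √10 steps on top of a fixed anchor-drug dose. Cells were fixed and nuclei stained in one step after 5 days, and nuclei were counted. Relative viability is the nuclei count for treated wells divided by that for vehicle wells, reported as medians of duplicate plates.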

Compound in assay [2]: O=C(Nc1cccc(C(F)(F)F)c1)Nc1cc(S(=O)(=O)NC2CC2)ccc1-c1ccsc1 [AGI-6780] + CS(=O)(=O)CCNCc1ccc(-c2ccc3ncnc(Nc4ccc(OCc5cccc(F)c5)c(Cl)c4)c3c2)o1 [Lapatinib] (partner 2 µM)
An outline of the steps: as §1

Compound in assay [3]: O=C(Nc1cccc(C(F)(F)F)c1)Nc1cc(S(=O)(=O)NC2CC2)ccc1-c1ccsc1 [AGI-6780] + Nc1ncn([C@H]2C[C@H](O)[C@@H](CO)O2)c(=O)n1 [Decitabine] (partner 2 µM)
An outline of the steps: as §1

Compound in assay [4]: O=C(Nc1cccc(C(F)(F)F)c1)Nc1cc(S(=O)(=O)NC2CC2)ccc1-c1ccsc1 [AGI-6780] + O=C(c1cc(Cc2n[nH]c(=O)c3ccccc23)ccc1F)N1CCN(C(=O)C2CC2)CC1 [Olaparib] (partner 8 µM)
An outline of the steps:
as §1

In the case of NCI-H1975, the relative viability in assay [1] (first compound 0.08 µM) was 0.259; in assay [1] (first compound 0.253 µM), 0.184; in assay [1] (first compound 0.8 µM), 0.222; in assay [1] (first compound 2.53 µM), 0.263; in assay [1] (first compound 8 µM), 0.161; in assay [2] (first compound 0.08 µM) it was 0.861. Also, the relative viability in assay [2] (first compound 0.253 µM) was found to be 1.01; in assay [2] (first compound 0.8 µM) it was 0.801; in assay [2] (first compound 2.53 µM) it was 0.875; in assay [2] (first compound 8 µM), 0.951; in assay [3] (first compound 0.08 µM) it was 0.38; in assay [3] (first compound 0.253 µM), 0.427. Further, the relative viability in assay [3] (first compound 0.8 µM) is 0.38; in assay [3] (first compound 2.53 µM), 0.377; in assay [3] (first compound 8 µM) it was 0.382; in assay [4] (first compound 0.08 µM), 0.78; in assay [4] (first compound 0.253 µM), 0.731; in assay [4] (first compound 0.8 µM), 0.804. The figures for the relative viability in assay [4] (first compound 2.53 µM) and in assay [4] (first compound 8 µM) were 0.722 and 0.806, respectively.

For SW 1573, the relative viability in assay [1] (first compound 0.08 µM) was 0.462; in assay [1] (first compound 0.253 µM) it was 0.398; in assay [1] (first compound 0.8 µM), 0.216; in assay [1] (first compound 2.53 µM), 0.216; in assay [1] (first compound 8 µM) it was 0.287; in assay [2] (first compound 0.08 µM), 1.3. Further, the relative viability worked out at 1.29 in assay [2] (first compound 0.253 µM); 1.08 in assay [2] (first compound 0.8 µM); 0.957 in assay [2] (first compound 2.53 µM); 1.06 in assay [2] (first compound 8 µM); 0.6 in assay [3] (first compound 0.08 µM); 0.449 in assay [3] (first compound 0.253 µM). The relative viability in assay [3] (first compound 0.8 µM) came out at 0.65; in assay [3] (first compound 2.53 µM), 0.417; in assay [3] (first compound 8 µM), 0.493; in assay [4] (first compound 0.08 µM), 0.578; in assay [4] (first compound 0.253 µM) it was 0.481; in assay [4] (first compound 0.8 µM), 0.525. The relative viability was found to be 0.426 in assay [4] (first compound 2.53 µM) and 0.465 in assay [4] (first compound 8 µM).

In the case of LU99A, the relative viability stood at 0.229 in assay [1] (first compound 0.08 µM); 0.258 in assay [1] (first compound 0.253 µM); 0.235 in assay [1] (first compound 0.8 µM); 0.223 in assay [1] (first compound 2.53 µM); 0.277 in assay [1] (first compound 8 µM); 1.12 in assay [2] (first compound 0.08 µM). Also, the relative viability in assay [2] (first compound 0.253 µM) was determined as 0.98; in assay [2] (first compound 0.8 µM), 0.976; in assay [2] (first compound 2.53 µM), 0.825; in assay [2] (first compound 8 µM) it was 1.03; in assay [3] (first compound 0.08 µM) it was 0.889; in assay [3] (first compound 0.253 µM), 1.09. For the same cell line, the relative viability came out at 0.903 in assay [3] (first compound 0.8 µM); 0.805 in assay [3] (first compound 2.53 µM); 0.988 in assay [3] (first compound 8 µM); 0.255 in assay [4] (first compound 0.08 µM); 0.289 in assay [4] (first compound 0.253 µM); 0.178 in assay [4] (first compound 0.8 µM). Further, the results for the relative viability in assay [4] (first compound 2.53 µM) and in assay [4] (first compound 8 µM) were 0.243 and 0.287, respectively.

For NCI-H2405, the relative viability came to 0.686 in assay [1] (first compound 0.08 µM); 0.718 in assay [1] (first compound 0.253 µM); 0.5 in assay [1] (first compound 0.8 µM); 0.515 in assay [1] (first compound 2.53 µM); 0.65 in assay [1] (first compound 8 µM); 1.05 in assay [2] (first compound 0.08 µM). In addition, the relative viability is 1.08 in assay [2] (first compound 0.253 µM); 0.938 in assay [2] (first compound 0.8 µM); 1.1 in assay [2] (first compound 8 µM); 0.781 in assay [3] (first compound 0.253 µM); 0.662 in assay [3] (first compound 0.8 µM); 0.626 in assay [3] (first compound 2.53 µM). Also, the relative viability in assay [3] (first compound 8 µM) was determined as 0.66; in assay [4] (first compound 0.253 µM) it was 0.85; in assay [4] (first compound 0.8 µM), 0.776; in assay [4] (first compound 2.53 µM), 0.838; in assay [4] (first compound 8 µM), 0.758.

As for HOP-62, the relative viability in assay [1] (first compound 0.08 µM) turned out to be 0.963; in assay [1] (first compound 0.253 µM), 0.983; in assay [1] (first compound 0.8 µM), 0.925; in assay [1] (first compound 2.53 µM), 1; in assay [1] (first compound 8 µM) it was 0.95; in assay [2] (first compound 0.08 µM) it was 0.974. Further, the relative viability amounted to 0.888 in assay [2] (first compound 0.253 µM); 0.965 in assay [2] (first compound 0.8 µM); 1.06 in assay [2] (first compound 2.53 µM); 1.06 in assay [2] (first compound 8 µM); 0.199 in assay [3] (first compound 0.08 µM); 0.264 in assay [3] (first compound 0.253 µM). Also, the relative viability in assay [3] (first compound 0.8 µM) was found to be 0.235; in assay [3] (first compound 2.53 µM) it was 0.25; in assay [3] (first compound 8 µM), 0.218; in assay [4] (first compound 0.08 µM) it was 0.47; in assay [4] (first compound 0.253 µM), 0.303; in assay [4] (first compound 0.8 µM) it was 0.197. Moreover, the relative viability turned out to be 0.536 in assay [4] (first compound 2.53 µM) and 0.452 in assay [4] (first compound 8 µM).

For NCI-H322M, the relative viability worked out at 0.889 in assay [1] (first compound 0.08 µM); 0.901 in assay [1] (first compound 0.253 µM); 0.912 in assay [1] (first compound 0.8 µM); 0.744 in assay [1] (first compound 2.53 µM); 0.814 in assay [1] (first compound 8 µM); 0.638 in assay [2] (first compound 0.08 µM). The relative viability in assay [2] (first compound 0.253 µM) was found to be 0.57; in assay [2] (first compound 0.8 µM), 0.608; in assay [2] (first compound 2.53 µM), 0.552; in assay [2] (first compound 8 µM) it was 0.626; in assay [3] (first compound 0.253 µM), 0.799; in assay [3] (first compound 0.8 µM) it was 0.68. Further, the relative viability was determined as 0.612 in assay [3] (first compound 2.53 µM); 0.708 in assay [3] (first compound 8 µM); 0.773 in assay [4] (first compound 0.253 µM); 0.744 in assay [4] (first compound 0.8 µM); 0.747 in assay [4] (first compound 2.53 µM); 0.874 in assay [4] (first compound 8 µM).
